Patent US20220050096A1, “ANALYTE-SENSITIVE PROBES AND CONTACT LENS FOR DIAGNOSIS OF OCULAR PATHOLOGIES” (University Of Maryland, Baltimore, priority 2020, published 2022)
Values joined by “and” are separate entries in the source; they are usually repeats but may differ in a detail not shown here. Identical values can stand only once. Values belong to the molecule of their own block, whether it stands above or below them.

Tests used:
[1] = Sodium binding affinity (mid-point) of SG in buffer; details: read-out: Na^+ binding constant / binding affinity (mid-point)
Method: (§1) Fluorescence Spectroscopic Measurements. Fluorescence intensities and intensity decays were measured using a Varian™ Eclipse 4 spectrofluorometer and a FluoTime300 instrument from PicoQuant™ (Berlin, Germany) and analyzed with the EasyTau™ software. The excitation source was a 473 nm laser diode with a repetition rate of 40 MHZ and a pulse width less than 100 ps. In other embodiments, the excitation source for SG-PL was at 495 nm from a Solea™ supercontinuum laser (PicoQuant™, Germany) and a 375 nm laser diode (PDL 375, PicoQuant™), a repetition rate of 40 MHz, and a pulse width less than 100 ps. Some intensity and lifetime measurements for SG-PL (as indicated) were performed using Alba V confocal fluorescence lifetime microscopy, FLIM (ISS, Urbana, Ill.), with excitation source of a 473 nm laser diode with a repetition rate of 40 MHz and a pulse width near 250 ps.
Sodium Binding Affinity. The sodium affinity of the labeled lenses can be described in terms of the dissociation constant. The dissociation reaction for the probe complexed with Na+ can be written as
P—Na^+↔P+Na^+ (equation 4)
where P is the free probe with no bound sodium in the dissociation constant KD is given. The ratio of sodium free and sodium bound probe is given by
The binding affinity is given as the mid-point (MP) of the ion-dependent response where the spectral change is 50% complete. […]

[2] = Chloride-dependent intensity decay analysis of SPQ-C18 in MyDay contact lenses, 20 mM MOPS pH 7.3; type: physicochemical
Method: as §1
Intensity decays were measured at the emission maximum with the band of 10 to 20 nm, analyzed in terms of the multi-exponential model:
I(t)=Σαi exp(−t/ti) (equation 1)
where ti are the individual decay times and αi the initial time-zero amplitudes. The mean decay time can be represented in two ways. The average lifetime is given by:
where Σαi=1.0 and Σfi=1.0. The term fi=αi τi is proportional to the fractional contribution of each component to the total intensity decay. The term τi/Σαi τi is the fractional contribution to the steady state emission. Here, we use the amplitude-weighted lifetime given by
which is appropriate when the emission is from a single fluorophore with a changing quantum yield. For a single exponential decay, the lifetime is given by τ=1.0/(knr+Γ) and the quantum yield is given by Q=Γ/(knr+Γ) where knr is the sum of all non-radiative decay rates and Γ is the radiative decay rate. The value of Γ is determined by the molecular extinction coefficient that remains constant under most conditions. For a single type of fluorophore with a constant value of Γ the normalized αi values represent the molecular fraction of each decay time component. The value of αi and τi were determined by non-linear least squares fitting using PicoQuant™ software.
Quenching by Chloride. Collisional quenching occurs, for example, when SPQ-C18 (also referred to as OD-MQB (N-Octadecyl-6-methoxyquinolinium bromide)) has a diffusion collision with a chloride ion. The intensities (I) and lifetimes (6) are analyzed using the Stern-Volmer equation,
SPQ-C18 was synthesized using 6-methoxy quinolinium (SPQ) and 1-bromooctadecane (C18) as described in the art. Lenses were labeled by incubation with 3 ml of a 1 μM solution of SPQ-C18 in methanol-water. SPQ-C18 bound rapidly to the Biofinity™ lenses. […] Unless stated otherwise, all spectral measurements conducted for the present study were performed in 20 mM MOPS buffer, 8 mM KCl, pH 7.2, at room temperature.

Kd [1]: ~10 mM and ~6.5 mM
Compound: COc1cc(N2CCOCCOCCN(c3cc(OC)c(NC(=O)c4ccc(-c5c6cc(Cl)c(=O)cc-6oc6cc([O-])c(Cl)cc56)c(C(=O)[O-])c4)cc3OC)CCOCC2)c(OC)cc1NC(=O)c1ccc(-c2c3cc(Cl)c(=O)cc-3oc3cc([O-])c(Cl)cc23)c(C(=O)[O-])c1.C[N+](C)(C)C.C[N+](C)(C)C.C[N+](C)(C)C.C[N+](C)(C)C [SG]

f1 ([2]; NaCl 0 mM): 0.074 | f2 ([2]; NaCl 0 mM): 0.191 | f3 ([2]; NaCl 0 mM): 0.735 | α1 ([2]; NaCl 0 mM): 0.560 | α2 ([2]; NaCl 0 mM): 0.187 | α3 ([2]; NaCl 0 mM): 0.253 | τ1 ([2]; NaCl 0 mM): 1.03 ns | τ2 ([2]; NaCl 0 mM): 8.00 ns | τ3 ([2]; NaCl 0 mM): 22.78 ns | τf ([2]; NaCl 0 mM): 18.36 ns | τα ([2]; NaCl 0 mM): 7.83 ns | f1 ([2]; NaCl 10 mM): 0.078 | f2 ([2]; NaCl 10 mM): 0.315 | f3 ([2]; NaCl 10 mM): 0.607 | α1 ([2]; NaCl 10 mM): 0.496 | α2 ([2]; NaCl 10 mM): 0.290 | α3 ([2]; NaCl 10 mM): 0.214 | τ1 ([2]; NaCl 10 mM): 1.05 ns | τ2 ([2]; NaCl 10 mM): 7.22 ns | τ3 ([2]; NaCl 10 mM): 18.80 ns | τf ([2]; NaCl 10 mM): 13.76 ns | τα ([2]; NaCl 10 mM): 6.63 ns | f1 ([2]; NaCl 20 mM): 0.102 | f2 ([2]; NaCl 20 mM): 0.306 | f3 ([2]; NaCl 20 mM): 0.592 | α1 ([2]; NaCl 20 mM): 0.554 | α2 ([2]; NaCl 20 mM): 0.263 | α3 ([2]; NaCl 20 mM): 0.183 | τ1 ([2]; NaCl 20 mM): 1.12 ns | τ2 ([2]; NaCl 20 mM): 7.04 ns | τ3 ([2]; NaCl 20 mM): 19.59 ns | τf ([2]; NaCl 20 mM): 13.86 ns | τα ([2]; NaCl 20 mM): 6.05 ns | f1 ([2]; NaCl 40 mM): 0.126 | f2 ([2]; NaCl 40 mM): 0.375 | f3 ([2]; NaCl 40 mM): 0.499 | α1 ([2]; NaCl 40 mM): 0.590 | α2 ([2]; NaCl 40 mM): 0.275 | α3 ([2]; NaCl 40 mM): 0.136 | τ1 ([2]; NaCl 40 mM): 1.06 ns | τ2 ([2]; NaCl 40 mM): 6.78 ns | τ3 ([2]; NaCl 40 mM): 18.24 ns | τf ([2]; NaCl 40 mM): 11.78 ns | τα ([2]; NaCl 40 mM): 4.96 ns | f1 ([2]; NaCl 80 mM): 0.148 | f2 ([2]; NaCl 80 mM): 0.373 | f3 ([2]; NaCl 80 mM): 0.478 | α1 ([2]; NaCl 80 mM): 0.601 | α2 ([2]; NaCl 80 mM): 0.284 | α3 ([2]; NaCl 80 mM): 0.115 | τ1 ([2]; NaCl 80 mM): 1.05 ns | τ2 ([2]; NaCl 80 mM): 5.58 ns | τ3 ([2]; NaCl 80 mM): 17.70 ns | τf ([2]; NaCl 80 mM): 10.71 ns | τα ([2]; NaCl 80 mM): 4.25 ns | f1 ([2]; NaCl 140 mM): 0.177 | f2 ([2]; NaCl 140 mM): 0.368 | f3 ([2]; NaCl 140 mM): 0.455 | α1 ([2]; NaCl 140 mM): 0.649 | α2 ([2]; NaCl 140 mM): 0.253 | α3 ([2]; NaCl 140 mM): 0.099 | τ1 ([2]; NaCl 140 mM): 1.01 ns | τ2 ([2]; NaCl 140 mM): 5.39 ns | τ3 ([2]; NaCl 140 mM): 17.05 ns | τf ([2]; NaCl 140 mM): 9.92 ns | τα ([2]; NaCl 140 mM): 3.70 ns | f1 ([2]; NaCl 220 mM): 0.191 | f2 ([2]; NaCl 220 mM): 0.425 | f3 ([2]; NaCl 220 mM): 0.284 | α1 ([2]; NaCl 220 mM): 0.636 | α2 ([2]; NaCl 220 mM): 0.282 | α3 ([2]; NaCl 220 mM): 0.081 | τ1 ([2]; NaCl 220 mM): 0.94 ns | τ2 ([2]; NaCl 220 mM): 4.71 ns | τ3 ([2]; NaCl 220 mM): 14.81 ns | τf ([2]; NaCl 220 mM): 7.87 ns | τα ([2]; NaCl 220 mM): 3.13 ns
Compound: CCCCCCCCCCCCCCCCCC[n+]1cccc2cc(OC)ccc21 [SPQ-C18, N-Octadecyl-6-methoxyquinolinium bromide]
